The target in the assay is T1, human mAChR M4 (Homo sapiens, UniProt P08173).
T1 construct: expressed in transfected cells; host or cells: CHO-K1 (ATCC), stably expressing hM4 and Gqi5
T1 sequence (P08173 1-479): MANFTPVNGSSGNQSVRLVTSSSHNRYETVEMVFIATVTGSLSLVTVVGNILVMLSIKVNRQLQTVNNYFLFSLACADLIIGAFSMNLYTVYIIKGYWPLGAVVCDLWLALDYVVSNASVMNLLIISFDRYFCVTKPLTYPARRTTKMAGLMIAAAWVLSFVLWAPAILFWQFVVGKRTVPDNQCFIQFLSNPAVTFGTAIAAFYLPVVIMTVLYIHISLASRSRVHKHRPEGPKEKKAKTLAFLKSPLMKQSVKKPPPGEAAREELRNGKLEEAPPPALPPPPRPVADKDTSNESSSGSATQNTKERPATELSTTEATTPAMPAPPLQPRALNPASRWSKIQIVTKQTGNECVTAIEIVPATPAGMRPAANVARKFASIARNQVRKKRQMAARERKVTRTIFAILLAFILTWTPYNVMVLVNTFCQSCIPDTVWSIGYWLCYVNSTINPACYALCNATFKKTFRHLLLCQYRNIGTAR
Nature of the assay: mAChR M4 cell-based functional assay: calcium flux (Fluo-4, FDSS), positive allosteric modulator activity on the EC20 acetylcholine response, hM4-Gqi5 CHO-K1 cells. To be noted: for Emax at 30 µM: CHO-K1, human M4, % ACh maximum at 30 μM; for EC50: human M4, PAM activity on EC20 acetylcholine response, calcium flux, read-out: Human M4 EC50. In short, it runs like this:
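Potentiation was taken as the concentration-dependent rise in the EC20 acetylcholine calcium response, fitted by a four-parameter logistic with EC20 as baseline. Fluo-4-loaded hM4-Gqi5 CHO-K1 cells received 11-point, threefold-diluted compound before acetylcholine at 144 s; FDSS read at 1 Hz.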
(Calcium flux is commonly read through the fluorescence of an indicator in the cells.)

Structures are written as SMILES. A value given as a limit tells only on which side of the number the result lay.

The Emax is the size of the effect at its maximum, as opposed to the concentration needed. As a reminder, the EC50 is the concentration at which the effect is half-maximal. As to `CN1CCN(c2cnc3c(c2)CN(c2ncnc4ccc(F)cc24)CC3)CC1=O` [Compound 272, 4-(6-(6-fluoroquinazolin-4-yl)-5,6,7,8-tetrahydro-1,6-naphthyridin-3-yl)-1-methylpiperazin-2-one], the Emax at 30 µM amounted to 92% and the EC50 was found to be 1150 nM.

As to `CC1CN(c2ncnc3ccc(F)cc23)Cc2cc(N3CCOCC3)cnc21` (stereo not drawn) [Compound 236, 4-(6-(6-fluoroquinazolin-4-yl)-8-methyl-5,6,7,8-tetrahydro-1,6-naphthyridin-3-yl)morpholine], the Emax at 30 µM is 86% and the EC50 turned out to be 140 nM.

Turning to `Cn1nccc1Nc1nc(N2CCc3ncc(C(F)(F)F)cc3C2)c2cc(F)ccc2n1` [Compound 197, 6-fluoro-N-(2-methylpyrazol-3-yl)-4-[3-(trifluoromethyl)-7,8-dihydro-5H-1,6-naphthyridin-6-yl]quinazolin-2-amine], the Emax at 30 µM turned out to be 98% and the EC50 stood at 340 nM.

`CC1(C)CN(c2nc(N3CCc4ncc(N5CCCn6nccc65)cc4C3)c3cccnc3n2)CCO1` [Compound 249, 4-(4-(3-(6,7-dihydropyrazolo[1,5-a]pyrimidin-4(5H)-yl)-7,8-dihydro-1,6-naphthyridin-6(5H)-yl)pyrido[2,3-d]pyrimidin-2-yl)-2,2-dimethylmorpholine]: the Emax at 30 µM was 47% and the EC50 was found to be 810 nM.

For the molecule `COc1cc2c(N3CCc4ncc(C(F)(F)F)cc4C3)nc(Cl)nc2cc1F` [Compound 167, 2-chloro-7-fluoro-6-methoxy-4-[3-(trifluoromethyl)-7,8-dihydro-5H-1,6-naphthyridin-6-yl]quinazoline], the Emax at 30 µM was found to be 72% and the EC50 was determined as 350 nM.

As for `COc1ccc2ncnc(N3CCc4ncc(Oc5cc(C)ccc5F)cc4C3)c2c1` [Compound 153, 4-[3-(2-fluoro-5-methyl-phenoxy)-7,8-dihydro-5H-1,6-naphthyridin-6-yl]-6-methoxy-quinazoline], the Emax at 30 µM is 38% and the EC50 was greater than 10000 nM.

In the case of `Cc1nc(N2CCc3ncc(-c4cc(F)c(F)cc4C)cc3C2)c2cc(F)ccc2n1` [Compound 307, 4-(3-(4,5-difluoro-2-methylphenyl)-7,8-dihydro-1,6-naphthyridin-6(5H)-yl)-6-fluoro-2-methylquinazoline], the Emax at 30 µM turned out to be 54% and the EC50 was 3730 nM.

`Cc1nc(N2CCc3ncc(C(F)(F)F)cc3C2)c2cc(C#N)ccc2n1` [Compound 142, 2-methyl-4-[3-(trifluoromethyl)-7,8-dihydro-5H-1,6-naphthyridin-6-yl]quinazoline-6-carbonitrile]: the Emax at 30 µM stood at 105% and the EC50 was 260 nM.

`Cc1cc(F)c(F)cc1-c1cnc2c(c1)CN(c1ncnc3ccc(F)cc13)CC2` [Compound 306, 4-(3-(4,5-difluoro-2-methylphenyl)-7,8-dihydro-1,6-naphthyridin-6(5H)-yl)-6-fluoroquinazoline]: the Emax at 30 µM worked out at 69% and the 50% effective concentration (EC50) came out at 5500 nM.

On to `Fc1cccc(Cc2cnc3c(c2)CN(c2ncnc4ccc(F)cc24)CC3)c1` [Compound 114, 6-fluoro-4-[3-[(3-fluorophenyl)methyl]-7,8-dihydro-5H-1,6-naphthyridin-6-yl]quinazoline], for which the Emax at 30 µM came to 75% and the EC50 is 590 nM.

Consider `COc1ccc2ncnc(N3CCc4ncc(Nc5cccnc5F)cc4C3)c2c1` [Compound 81, N-(2-fluoro-3-pyridyl)-6-(6-methoxyquinazolin-4-yl)-7,8-dihydro-5H-1,6-naphthyridin-3-amine], for which the Emax at 30 µM worked out at 95% and the half-maximal effective concentration (EC50) stood at 460 nM.

For the molecule `Fc1ccc2ncnc(N3CCc4ncc(N5CCO[C@H](c6ccccc6)C5)cc4C3)c2c1` [Compound 216, (R)-4-(6-(6-fluoroquinazolin-4-yl)-5,6,7,8-tetrahydro-1,6-naphthyridin-3-yl)-2-phenylmorpholine], the Emax at 30 µM worked out at 81% and the EC50 is 1050 nM.

For `Fc1ccc2ncnc(N3CCc4ncc(N5CCOc6ncccc65)cc4C3)c2c1` [Compound 76, 1-[6-(6-fluoroquinazolin-4-yl)-7,8-dihydro-5H-1,6-naphthyridin-3-yl]-2,3-dihydropyrido[2,3-b][1,4]oxazine], the Emax at 30 µM turned out to be 98% and the EC50 amounted to 30 nM.

With `Cc1nc(N2CCc3ncc(C(C)(O)C(F)(F)F)cc3C2)c2cc(Cl)ccc2n1` (stereo not drawn) [Compound 291, 2-(6-(6-chloro-2-methylquinazolin-4-yl)-5,6,7,8-tetrahydro-1,6-naphthyridin-3-yl)-1,1,1-trifluoropropan-2-ol], the Emax at 30 µM turned out to be 97% and the EC50 is 400 nM.

For the molecule `Cc1nc(N2CCc3ncc(-c4cnn(C5CC5)c4)cc3C2)c2cc(C(F)(F)F)ccc2n1` [Compound 59, 4-[3-(1-cyclopropylpyrazol-4-yl)-7,8-dihydro-5H-1,6-naphthyridin-6-yl]-2-methyl-6-(trifluoromethyl)quinazoline], the Emax at 30 µM was found to be 58% and the 50% effective concentration (EC50) was 1970 nM.

For the molecule `Cc1nc(N2CCc3ncc(N4CCO[C@@H](c5ccccc5)C4)cc3C2)c2cc(F)ccc2n1` [Compound 222, (S)-4-(6-(6-fluoro-2-methylquinazolin-4-yl)-5,6,7,8-tetrahydro-1,6-naphthyridin-3-yl)-2-phenylmorpholine], the Emax at 30 µM was 50% and the EC50 was found to be 3470 nM.

With `Cn1nccc1Nc1cnc2c(c1)CN(c1ncnc3ccc(Cl)cc13)CC2` [Compound 106, 6-(6-chloroquinazolin-4-yl)-N-(2-methylpyrazol-3-yl)-7,8-dihydro-5H-1,6-naphthyridin-3-amine], the Emax at 30 µM came out at 95% and the EC50 is 130 nM.

Regarding `Cc1ncc(-c2cnc3c(c2)CN(c2ncnc4cc(F)c(F)cc24)CC3)s1` [Compound 52, 5-[6-(6,7-difluoroquinazolin-4-yl)-7,8-dihydro-5H-1,6-naphthyridin-3-yl]-2-methyl-thiazole], the Emax at 30 µM was found to be 87% and the EC50 was found to be 80 nM.

For `FC(F)(F)c1cnc2c(c1)CN(c1nc(Cl)nc3ccc(Cl)cc13)CC2` [Compound 141, 2,6-dichloro-4-[3-(trifluoromethyl)-7,8-dihydro-5H-1,6-naphthyridin-6-yl]quinazoline], the Emax at 30 µM is 95% and the EC50 is 220 nM.

Take `Fc1ccc2ncnc(N3CCc4ncc(C(F)(F)F)cc4C3)c2c1` [Compound 122, 6-fluoro-4-[3-(trifluoromethyl)-7,8-dihydro-5H-1,6-naphthyridin-6-yl]quinazoline]: the Emax at 30 µM turned out to be 89% and the EC50 stood at 90 nM.

As to `Fc1ccc2ncnc(N3CCc4ncc(N5CCOC(c6ccccn6)C5)cc4C3)c2c1` (stereo not drawn) [Compound 223, 4-(6-(6-fluoroquinazolin-4-yl)-5,6,7,8-tetrahydro-1,6-naphthyridin-3-yl)-2-(pyridin-2-yl)morpholine], the Emax at 30 µM worked out at 65% and the half-maximal effective concentration (EC50) came out at 670 nM.

Consider `Cc1nc(N2CCc3ncc(-c4ccc(C(F)(F)F)nc4)cc3C2)c2cc(Cl)ccc2n1` [Compound 4, 6-chloro-2-methyl-4-[3-[6-(trifluoromethyl)-3-pyridyl]-7,8-dihydro-5H-1,6-naphthyridin-6-yl]quinazoline], for which the Emax at 30 µM came out at 57% and the EC50 amounted to 860 nM.

As to `Cc1nn(C)cc1-c1cnc2c(c1)CN(c1ncnc3ccc(F)cc13)CC2` [Compound 11, 4-[3-(1,3-dimethylpyrazol-4-yl)-7,8-dihydro-5H-1,6-naphthyridin-6-yl]-6-fluoro-quinazoline], the Emax at 30 µM came to 83% and the EC50 came to 100 nM.

As to `Cc1nn(C)cc1-c1cnc2c(c1)CN(c1ncnc3ccc(Cl)cc13)CC2` [Compound 6, 6-chloro-4-[3-(1,3-dimethylpyrazol-4-yl)-7,8-dihydro-5H-1,6-naphthyridin-6-yl]quinazoline], the Emax at 30 µM turned out to be 88% and the EC50 is 70 nM.

With `Cc1nc(N2CCc3ncc(-c4cnc(F)cc4C)cc3C2)c2cc(Cl)ccc2n1` [Compound 311, 6-chloro-4-(3-(6-fluoro-4-methylpyridin-3-yl)-7,8-dihydro-1,6-naphthyridin-6(5H)-yl)-2-methylquinazoline], the maximum response (Emax) at 30 µM is 77% and the EC50 was 180 nM.

Take `Cc1ccc2ncnc(N3CCc4ncc(-c5ccccc5C)cc4C3)c2c1` [Compound 298, 6-methyl-4-(3-(o-tolyl)-7,8-dihydro-1,6-naphthyridin-6(5H)-yl)quinazoline]: the Emax at 30 µM is 100% and the EC50 came to 1300 nM.

As for `Cn1nccc1Nc1cnc2c(c1)CN(c1nc(N3CCOC(C)(C)C3)nc3ccc(F)cc13)CC2` [Compound 214, 6-[2-(2,2-dimethylmorpholin-4-yl)-6-fluoro-quinazolin-4-yl]-N-(2-methylpyrazol-3-yl)-7,8-dihydro-5H-1,6-naphthyridin-3-amine], the Emax at 30 µM was 70% and the EC50 was determined as 830 nM.

The record behind these values is patent US20250026752A1, “POSITIVE ALLOSTERIC MODULATORS OF THE MUSCARINIC ACETYLCHOLINE RECEPTOR M4” (Vanderbilt University, priority 2021, published 2025).
